Consider five molecules from patent publication US20180368410A1, “MICROBIOCIDAL OXADIAZOLE DERIVATIVES” (SYNGENTA PARTICIPATIONS AG, priority 2015, published 2018).

In one data set the test system is Uromyces viciae-Fabael. Put plainly: Uromyces viciae-fabae / field bean / leaf disc preventative (faba-bean rust). The format is in vivo, Uromyces viciae-fabae on field bean. As to conditions: foliar, 288 h, 100 ppm in the applied formulation, inoculated two hours after application, assessed 12 days after application, vs untreated control leaf discs, read-out: disease control. Here is the method:
Leaf disks or leaf segments of various plant species are cut from plants grown in a greenhouse. The cut leaf disks or segments are placed in multiwell plates (24-well format) onto water agar. The leaf disks are sprayed with a test solution before (preventative) or after (curative) inoculation. Compounds to be tested are prepared as DMSO solutions (max. 10 mg/ml) which are diluted to the appropriate concentration with 0.025% Tween20 just before spraying. The inoculated leaf disks or segments are incubated under defined conditions (temperature, relative humidity, light, etc.) according to the respective test system. A single evaluation of disease level is carried out 3 to 14 days after inoculation, depending on the pathosystem. Percent disease control relative to the untreated check leaf disks or segments is then calculated.
Field bean leaf discs are placed on water agar in multiwell plates (96-well format) and 10 μl of the formulated test compound diluted in acetone and a spreader pipetted onto the leaf disc. Two hours after application leaf discs are inoculated by spraying a spore suspension on the lower leaf surface. The leaf discs are incubated in a climate cabinet at 22° C. with 18 hour day and 70% relative humidity. The activity of a compound is assessed as percent disease control compared to untreated when an appropriate level of disease damage appears in untreated check leaf disks (12 days after application).
The following compounds at 100 ppm in the applied formulation give at least 80% disease control in this test when compared to untreated control leaf discs under the same conditions, which show extensive disease development.

Data set [1] relates to Puccinia recondita f. Sp. Triticil. Put plainly: Puccinia recondita f. sp. tritici / wheat / leaf disc curative (brown rust). The conditions noted are these: foliar, 200 ppm in the applied formulation, applied 1 day after inoculation, assessed 6 to 8 days after application, vs untreated control leaf disks, read-out: disease control. Format: in vivo, Puccinia recondita f. sp. tritici on wheat cv. Kanzler. In a few lines: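 Read-out is percent disease control relative to untreated segments, assessed 6 to 8 days after treatment once check disease is adequate. Kanzler wheat leaf segments on agar receive fungal spores, then test compound (DMSO stock diluted in 0.025% Tween20 or water) 1 day later, under 19° C and 75% relative humidity.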

The subject of data set [2] is Puccinia recondita f. Sp. Tritici. Put plainly: Puccinia recondita f. sp. tritici / wheat / leaf disc preventative (brown rust). The format is in vivo, Puccinia recondita f. sp. tritici on wheat cv. Kanzler. The conditions noted are these: foliar, 200 ppm in the applied formulation, inoculated 1 day after application, assessed 7 to 9 days after application, vs untreated control leaf disks, read-out: disease control. In a few lines: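 Wheat cv. Kanzler leaf segments on agar were sprayed with compound (DMSO stock diluted with 0.025% Tween20) 1 day before inoculation with spores. Segments were held at 19 °C, 75% rh, 12 h light/dark. Percent disease control versus untreated was scored 7–9 days after application.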

A further data set deals with Phakopsora pachyrhizi. Put plainly: Phakopsora pachyrhizi / soybean / leaf disc preventative (Asian soybean rust). The conditions noted are these: foliar, 200 ppm in the applied formulation, inoculated one day after application, assessed 12 to 14 days after application, vs untreated control leaf disks, read-out: disease control. Format: in vivo, Phakopsora pachyrhizi on soybean. The procedure, abridged: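 Read-out is percent disease control relative to untreated check discs, assessed once untreated discs show adequate disease, 12 to 14 days after application. Compounds, tested at 200 ppm in the applied formulation, are sprayed onto soybean leaf discs one day before inoculation with a spore suspension.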

Data set [3] concerns Glomerella Lacenarium (Colletotrichum lacenarium). Put plainly: Glomerella lagenarium (Colletotrichum lagenarium) liquid culture / cucumber / preventative (anthracnose). The format is cell-based. As to conditions: 20 ppm in the applied formulation, liquid culture in PDB, 24° C., inhibition of growth measured photometrically 3 to 4 days after application, vs untreated control, read-out: disease control. In a few lines:
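Photometric measurement of fungal growth inhibition 3 to 4 days after application gives percent activity relative to untreated check. Conidia were suspended in potato dextrose broth and combined with DMSO compound solutions; incubation at 24° C.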

`O=C(NCc1ccc(-c2noc(C(F)(F)F)n2)cc1)C1CC1` [Compound 1.1, N-[[4-[5-(trifluoromethyl)-1,2,4-oxadiazol-3-yl]phenyl]methyl] cyclopropanecarboxamide] displayed a melting point of 183 to 190 °C. For the same molecule, the pest or weed control at 100 ppm in the data set with Uromyces viciae-Fabael was at least 80%. Further, the pest or weed control at 200 ppm in data set [1] was at least 80%. In data set [2], the pest or weed control at 200 ppm is at least 80%. The pest or weed control at 200 ppm in the data set with Phakopsora pachyrhizi was at least 80%. For the same molecule, the inhibition of growth at 20 ppm in data set [3] is at least 80%.
Molecule `O=C(NCc1ccc(-c2noc(C(F)(F)F)n2)cc1)C1(F)CC1` [Compound 1.2, 1-fluoro-N-[[4-[5-(trifluoromethyl)-1,2,4-oxadiazol-3-yl]phenyl]methyl] cyclopropanecarboxamide] yielded a melting point of 101 to 108 °C. Besides, the pest or weed control at 100 ppm in the data set on Uromyces viciae-Fabael is at least 80%. For the same molecule, in data set [1], the pest or weed control at 200 ppm is at least 80%. The pest or weed control at 200 ppm in data set [2] is at least 80%. Further, the pest or weed control at 200 ppm in the data set on Phakopsora pachyrhizi was at least 80%. Moreover, the inhibition of growth at 20 ppm in data set [3] is at least 80%.
Regarding `O=C(NCc1ccc(-c2noc(C(F)(F)F)n2)cc1)c1ccccc1Cl` [Compound 1.3, 2-chloro-N-[[4-[5-(trifluoromethyl)-1,2,4-oxadiazol-3-yl]phenyl]methyl]benzamide], the melting point lay within 136 to 142 °C. Also, the pest or weed control at 100 ppm in the data set on Uromyces viciae-Fabael was at least 80%. Further, the pest or weed control at 200 ppm in data set [2] is at least 80%. Besides, the pest or weed control at 200 ppm in the data set on Phakopsora pachyrhizi was at least 80%. In addition, in data set [3], the inhibition of growth at 20 ppm is at least 80%.
Turning to `Cc1occc1C(=O)NCc1ccc(-c2noc(C(F)(F)F)n2)cc1` [Compound 1.4, 2-methyl-N-[[4-[5-(trifluoromethyl)-1,2,4-oxadiazol-3-yl]phenyl]methyl]furan-3-carboxamide], the melting point was in the range of 102 to 112 °C. Also, the pest or weed control at 100 ppm in the data set on Uromyces viciae-Fabael is at least 80%. Further, the pest or weed control at 200 ppm in data set [1] was at least 80%. Further, the pest or weed control at 200 ppm in data set [2] is at least 80%. In the data set with Phakopsora pachyrhizi, the pest or weed control at 200 ppm was at least 80%. Further, the inhibition of growth at 20 ppm in data set [3] is at least 80%.
As for `O=C(NCc1ccc(-c2noc(C(F)(F)F)n2)cc1)C1CCCO1` (centres unmarked) [Compound 1.5, N-[[4-[5-(trifluoromethyl)-1,2,4-oxadiazol-3-yl]phenyl]methyl] tetrahydrofuran-2-carboxamide], the melting point lay in the range of 76 to 83 °C. Moreover, the pest or weed control at 100 ppm in the data set on Uromyces viciae-Fabael was at least 80%. In addition, in data set [1], the pest or weed control at 200 ppm is at least 80%. For the same molecule, the pest or weed control at 200 ppm in data set [2] is at least 80%. In the data set on Phakopsora pachyrhizi, the pest or weed control at 200 ppm was at least 80%. For the same molecule, the inhibition of growth at 20 ppm in data set [3] was at least 80%.

The melting point is the temperature of the solid-liquid transition.
